# In paper PMC11124822, “Discovery and Anticancer Screening of Novel Oxindole-Based Derivative Bearing Pyridyl Group as Potent and Selective Dual FLT3/CDK2 Kinase Inhibitor” (Pharmaceuticals, 2024):
# What was measured:
# [1] = tested on: HOP-62; test: NCI-60 antiproliferative screen (SRB); format: cell-based, human; settings: Homo sapiens; 10 µM single dose, 48 h; HOP-62 (NSCLC); read-out: Growth inhibition (%)
# [2] = tested on: HOP-92; test: NCI-60 antiproliferative screen (SRB); format: cell-based, human; settings: Homo sapiens; 10 µM single dose, 48 h; HOP-92 (NSCLC); read-out: Growth inhibition (%)
# [3] = tested on: NCI-H226; test: NCI-60 antiproliferative screen (SRB); format: cell-based, human; settings: Homo sapiens; 10 µM single dose, 48 h; NCI-H226 (NSCLC); read-out: Growth inhibition (%)
# [4] = tested on: NCI-H23; test: NCI-60 antiproliferative screen (SRB); format: cell-based, human; settings: Homo sapiens; 10 µM single dose, 48 h; NCI-H23 (NSCLC); read-out: Growth inhibition (%)
# [5] = tested on: NCI-H322M; test: NCI-60 antiproliferative screen (SRB); format: cell-based, human; settings: Homo sapiens; 10 µM single dose, 48 h; NCI-H322M (NSCLC); read-out: Growth inhibition (%)
# [6] = tested on: NCI-H460; test: NCI-60 antiproliferative screen (SRB); format: cell-based, human; settings: Homo sapiens; 10 µM single dose, 48 h; NCI-H460 (NSCLC); read-out: Growth inhibition (%)
# [7] = tested on: HCC-2998; test: NCI-60 antiproliferative screen (SRB); format: cell-based, human; settings: Homo sapiens; 10 µM single dose, 48 h; HCC-2998 (Colon); read-out: Growth inhibition (%)
# [8] = tested on: HT29; test: NCI-60 antiproliferative screen (SRB); format: cell-based, human; settings: Homo sapiens, HT-29; 10 µM single dose, 48 h; HT29 (Colon); read-out: Growth inhibition (%)
# [9] = tested on: SW-620; test: NCI-60 antiproliferative screen (SRB); format: cell-based, human; settings: Homo sapiens; 10 µM single dose, 48 h; SW-620 (Colon); read-out: Growth inhibition (%)
# [10] = tested on: SF-268; test: NCI-60 antiproliferative screen (SRB); format: cell-based, human; settings: Homo sapiens; 10 µM single dose, 48 h; SF-268 (CNS); read-out: Growth inhibition (%)
# [11] = tested on: SF-539; test: NCI-60 antiproliferative screen (SRB); format: cell-based, human; settings: Homo sapiens; 10 µM single dose, 48 h; SF-539 (CNS); read-out: Growth inhibition (%)
# [12] = tested on: U251; test: NCI-60 antiproliferative screen (SRB); format: cell-based, human; settings: Homo sapiens, U-251; 10 µM single dose, 48 h; U251 (CNS); read-out: Growth inhibition (%)
# [13] = tested on: LOX IMVI; test: NCI-60 antiproliferative screen (SRB); format: cell-based, human; settings: Homo sapiens; 10 µM single dose, 48 h; LOX IMVI (Melanoma); read-out: Growth inhibition (%)
# [14] = tested on: MALME-3M; test: NCI-60 antiproliferative screen (SRB); format: cell-based, human; settings: Homo sapiens; 10 µM single dose, 48 h; MALME-3M (Melanoma); read-out: Growth inhibition (%)
# [15] = tested on: MDA-MB-435; test: NCI-60 antiproliferative screen (SRB); format: cell-based, human; settings: Homo sapiens; 10 µM single dose, 48 h; MDA-MB-435 (Melanoma); read-out: Growth inhibition (%)
# [16] = tested on: SK-MEL-5; test: NCI-60 antiproliferative screen (SRB); format: cell-based, human; settings: Homo sapiens; 10 µM single dose, 48 h; SK-MEL-5 (Melanoma); read-out: Growth inhibition (%)
# [17] = tested on: IGROV1; test: NCI-60 antiproliferative screen (SRB); format: cell-based, human; settings: Homo sapiens, IGROV-1; 10 µM single dose, 48 h; IGROV1 (Ovarian); read-out: Growth inhibition (%)
# [18] = tested on: 786-0; test: NCI-60 antiproliferative screen (SRB); format: cell-based, human; settings: Homo sapiens; 10 µM single dose, 48 h; 786-0 (Renal); read-out: Growth inhibition (%)
# [19] = tested on: ACHN; test: NCI-60 antiproliferative screen (SRB); format: cell-based, human; settings: Homo sapiens; 10 µM single dose, 48 h; ACHN (Renal); read-out: Growth inhibition (%)
# [20] = tested on: RXF 393; test: NCI-60 antiproliferative screen (SRB); format: cell-based, human; settings: Homo sapiens; 10 µM single dose, 48 h; RXF 393 (Renal); read-out: Growth inhibition (%)
# [21] = tested on: TK-10; test: NCI-60 antiproliferative screen (SRB); format: cell-based, human; settings: Homo sapiens; 10 µM single dose, 48 h; TK-10 (Renal); read-out: Growth inhibition (%)
# [22] = tested on: DU-145; test: NCI-60 antiproliferative screen (SRB); format: cell-based, human; settings: Homo sapiens; 10 µM single dose, 48 h; DU-145 (Prostate); read-out: Growth inhibition (%)
# [23] = tested on: MCF7; test: NCI-60 antiproliferative screen (SRB); format: cell-based, human; settings: Homo sapiens; 10 µM single dose, 48 h; MCF7 (Breast); read-out: Growth inhibition (%)
# [24] = tested on: HS 578T; test: NCI-60 antiproliferative screen (SRB); format: cell-based, human; settings: Homo sapiens; 10 µM single dose, 48 h; HS 578T (Breast); read-out: Growth inhibition (%)
# [25] = tested on: BT-549; test: NCI-60 antiproliferative screen (SRB); format: cell-based, human; settings: Homo sapiens; 10 µM single dose, 48 h; BT-549 (Breast); read-out: Growth inhibition (%)
# [26] = tested on: T-47D; test: NCI-60 antiproliferative screen (SRB); format: cell-based, human; settings: Homo sapiens, T47D; 10 µM single dose, 48 h; T-47D (Breast); read-out: Growth inhibition (%)
# [27] = tested on: NCI-60 human cancer cell lines; test: NCI-60 screen, full panel summary; format: cell-based; settings: 10 µM single dose; for Mean Growth Percent: all NCI-60 cell lines
# Protocol: In a comprehensive test, compounds were assayed at a single dose concentration (10^−5 M) in the full panel of NCI-60 cancer cell lines.
# [28] = tested on: SNB-75; test: NCI-60 antiproliferative screen (SRB); settings: Homo sapiens, SNB-75, 48 h, read-out: Growth inhibition (%)
# Protocol: (§1) Anticancer activity was tested against 60 cancer cell lines (NCI-60) after 48h treatments with a single dosage of 10 μM of compounds by using sulforhodamine B assay [39] on the traditional 96-well platform. […] The human cancer cell lines of the NCI-60 panel are grown in RPMI 1640 medium supplemented with 5% FBS (fetal bovine serum) and 2 mM L-glutamine. […] For further analysis of promising compounds, five dose screens were performed against the NCI-60 panel. Drug treatments are performed in 5 doses using 10-fold or ½ log dose dilutions.
# [29] = tested on: SR; test: NCI-60 antiproliferative screen (SRB); settings: Homo sapiens, 48 h, read-out: Growth inhibition (%)
# Protocol: as §1
smiles,measurement,setting,value
"O=C1Nc2ccc(F)cc2C1=Cc1ccc(OCc2ccccn2)cc1 (mixture of isomers) [Compound 5f, (E/Z)-5-fluoro-3-[4-(pyridin-2-ylmethoxy)benzylidene]indolin-2-one]",inhibition at 10 µM,[1],-7.71%
same,inhibition at 10 µM,[2],32.9%
same,inhibition at 10 µM,[3],6.67%
same,inhibition at 10 µM,[4],28%
same,inhibition at 10 µM,[5],3.29%
same,inhibition at 10 µM,[6],11.6%
same,inhibition at 10 µM,[7],-20.2%
same,inhibition at 10 µM,[8],-0.51%
same,inhibition at 10 µM,[9],-2.79%
same,inhibition at 10 µM,[10],29.9%
same,inhibition at 10 µM,[11],47.7%
same,inhibition at 10 µM,[12],41.8%
same,inhibition at 10 µM,[13],12.6%
same,inhibition at 10 µM,[14],7.24%
same,inhibition at 10 µM,[15],-2.77%
same,inhibition at 10 µM,[16],-5.85%
same,inhibition at 10 µM,[17],6.35%
same,inhibition at 10 µM,[18],16.6%
same,inhibition at 10 µM,[19],23.8%
same,inhibition at 10 µM,[20],24.2%
same,inhibition at 10 µM,[21],4.47%
same,inhibition at 10 µM,[22],7.73%
same,inhibition at 10 µM,[23],37.8%
same,inhibition at 10 µM,[24],21.9%
same,inhibition at 10 µM,[25],13.2%
same,inhibition at 10 µM,[26],60.7%
same,Positive Cytostatic Effect (cell lines with percent growth from 0 to 50 / total number of cell lines),[27],3/59
same,Positive Cytotoxic Effect (cell lines with percent growth of <0 / total number of cell lines),[27],0/59
same,Sensitive/Total Cell Lines,[27],3/59
same,The Most Sensitive Cell Line,[27],NCI-H522
same,Mean Growth Percent,[27],13.74
same,inhibition at 10 µM,[28],10.2%
"O=C1Nc2ccccc2C1=Cc1ccc(OCc2cccnc2)cc1 (mixture of isomers) [Compound 5i, (E/Z)-3-[4-(Pyridin-3-ylmethoxy)benzylidene]indolin-2-one]",inhibition at 10 µM,[1],37.2%
same,inhibition at 10 µM,[2],35.4%
same,inhibition at 10 µM,[3],38.2%
same,inhibition at 10 µM,[4],42.4%
same,inhibition at 10 µM,[6],21.7%
same,inhibition at 10 µM,[7],-2.08%
same,inhibition at 10 µM,[8],32.7%
same,inhibition at 10 µM,[9],19.9%
same,inhibition at 10 µM,[10],-19.6%
same,inhibition at 10 µM,[11],36.2%
same,inhibition at 10 µM,[12],53.2%
same,inhibition at 10 µM,[13],55%
same,inhibition at 10 µM,[15],60.9%
same,inhibition at 10 µM,[16],59.4%
same,inhibition at 10 µM,[18],17.2%
same,inhibition at 10 µM,[19],37.5%
same,inhibition at 10 µM,[20],24.9%
same,inhibition at 10 µM,[21],-15.7%
same,inhibition at 10 µM,[22],39.8%
same,inhibition at 10 µM,[23],58%
same,inhibition at 10 µM,[24],17.6%
same,inhibition at 10 µM,[25],53.2%
same,inhibition at 10 µM,[26],51%
same,Positive Cytostatic Effect (cell lines with percent growth from 0 to 50 / total number of cell lines),[27],17/56
same,Positive Cytotoxic Effect (cell lines with percent growth of <0 / total number of cell lines),[27],0/56
same,Sensitive/Total Cell Lines,[27],17/56
same,The Most Sensitive Cell Line,[27],KM12
same,Mean Growth Percent,[27],34.95
same,inhibition at 10 µM,[29],72%
same,inhibition at 10 µM,[28],-1.11%
"O=C1Nc2ccc(F)cc2C1=Cc1ccc(OCc2cccnc2)cc1 (mixture of isomers) [Compound 5j, (E/Z)-5-Fluoro-3-[4-(pyridin-3-ylmethoxy)benzylidene]indolin-2-one]",inhibition at 10 µM,[1],45.4%
same,inhibition at 10 µM,[2],25.8%
same,inhibition at 10 µM,[3],55.6%
same,inhibition at 10 µM,[4],58.2%
same,inhibition at 10 µM,[6],53.9%
same,inhibition at 10 µM,[7],23.4%
same,inhibition at 10 µM,[8],84.1%
same,inhibition at 10 µM,[9],70.1%
same,inhibition at 10 µM,[10],11.1%
same,inhibition at 10 µM,[11],63.3%
same,inhibition at 10 µM,[12],83.7%
same,inhibition at 10 µM,[13],76.9%
same,inhibition at 10 µM,[15],98.3%
same,inhibition at 10 µM,[16],113%
same,inhibition at 10 µM,[18],24.2%
same,inhibition at 10 µM,[19],51.8%
same,inhibition at 10 µM,[20],37.3%
same,inhibition at 10 µM,[21],-1.92%
same,inhibition at 10 µM,[22],46.1%
same,inhibition at 10 µM,[23],91%
same,inhibition at 10 µM,[24],37.4%
same,inhibition at 10 µM,[25],65.7%
same,inhibition at 10 µM,[26],66.7%
same,Positive Cytostatic Effect (cell lines with percent growth from 0 to 50 / total number of cell lines),[27],32/56
same,Positive Cytotoxic Effect (cell lines with percent growth of <0 / total number of cell lines),[27],1/56
same,Sensitive/Total Cell Lines,[27],33/56
same,The Most Sensitive Cell Line,[27],SK-MEL-5
same,number of cell lines with cytostatic effects,[27],32
same,number of cell lines with cytotoxic effects,[27],1
same,Mean Growth Percent,[27],53.95
same,inhibition at 10 µM,[29],73%
same,inhibition at 10 µM,[28],-5.67%
"O=C1Nc2ccc(Cl)cc2C1=Cc1ccc(OCc2cccnc2)cc1 (mixture of isomers) [Compound 5k, (E/Z)-5-Chloro-3-[4-(pyridin-3-ylmethoxy)benzylidene] indolin-2-one]",inhibition at 10 µM,[1],0.56%
same,inhibition at 10 µM,[2],-1.4%
same,inhibition at 10 µM,[3],11.8%
same,inhibition at 10 µM,[4],16.7%
same,inhibition at 10 µM,[6],14.3%
same,inhibition at 10 µM,[7],-9.21%
same,inhibition at 10 µM,[8],18.1%
same,inhibition at 10 µM,[9],2.62%
same,inhibition at 10 µM,[10],5.1%
same,inhibition at 10 µM,[11],20.2%
same,inhibition at 10 µM,[12],27.3%
same,inhibition at 10 µM,[13],10.1%
same,inhibition at 10 µM,[15],29.3%
same,inhibition at 10 µM,[16],11.4%
same,inhibition at 10 µM,[18],1.47%
same,inhibition at 10 µM,[19],16.4%
same,inhibition at 10 µM,[20],6.84%
same,inhibition at 10 µM,[21],-37.8%
same,inhibition at 10 µM,[22],0.75%
same,inhibition at 10 µM,[23],55.5%
same,inhibition at 10 µM,[24],3.67%
same,inhibition at 10 µM,[25],14.5%
same,inhibition at 10 µM,[26],23.2%
same,Positive Cytostatic Effect (cell lines with percent growth from 0 to 50 / total number of cell lines),[27],5/56
same,Positive Cytotoxic Effect (cell lines with percent growth of <0 / total number of cell lines),[27],0/56
same,Sensitive/Total Cell Lines,[27],5/56
same,Mean Growth Percent,[27],14.49
same,inhibition at 10 µM,[29],66.1%
same,inhibition at 10 µM,[28],-10.2%
